Test systems include MDA-MB-231; CCRF-CEM; HCT-15; ACHN; HT-29; T47D; UACC-257; PC-3; OVCAR-5; SF-539; UO-31; NCI-H522; LOX IMVI; DU-145; MDA-MB-435; HL-60; OVCAR-4; OVCAR-3; K562; U-251.
Common to all, as to experiment: NCI tumour cell line growth inhibition, 48 h

The values below come from ChEMBL document CHEMBL1201862, “PubChem BioAssay data set” (2004).

Molecules are shown by their SMILES.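 The compound was tested at five concentrations on cells cultured in 96-well plates, with a 48-hour exposure period. GI50 marks 50% less growth.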 Active and inactive are the calls of the source. Rule as the data show it: active = GI50 up to about 1.1 µM and inactive = higher. Where a SMILES comes first, the peptide text is derived from it. [ ]: non-standard residue; d: D form. The star is where a group is joined. ξ: configuration not given here. X4 = COc1ccc(C(N*)c2ccc(OC)cc2)cc1; NMeF = CN[C@@H](Cc1ccccc1)C(=O)O; NMeD = CN[C@@H](CC(=O)O)C(=O)O; NMeV = CN[C@H](C(=O)O)C(C)C; ξNMeV = CNC(C(=O)O)C(C)C; Boc = CC(C)(C)OC(=O)*; ξNMeA = CNC(C)C(=O)O; ξV = CC(C)C(N)C(=O)O

With `COc1ccc(C(NC(=O)C[C@@H](C(=O)N(C)C(C)C(=O)O)N(C)C(=O)[C@@H]2CCCN2C(=O)[C@H](C(C)C)N(C)C(=O)C(C(C)C)N(C)C(=O)[C@H](Cc2ccccc2)N(C)C(=O)C(NC(=O)OC(C)(C)C)C(C)C)c2ccc(OC)cc2)cc1` (stereo not given in full) (Boc-[ξV][NMeF][ξNMeV][NMeV]P[NMeD](X4)[ξNMeA]-OH), the GI50 in the experiment with MDA-MB-231 is 11.3 µM (inactive); with CCRF-CEM it was 7.43 µM (inactive); in the experiment with HCT-15 it was 21.9 µM; in the experiment with ACHN, 36.9 µM (inactive); with HT-29, 16.2 µM (inactive); in the experiment with T47D, 11.9 µM (inactive). Also, the GI50 in the experiment on UACC-257 is 9.75 µM (inactive); in the experiment on PC-3 it was 13.7 µM (inactive); in the experiment with OVCAR-5 it was > 37.5 µM (inactive); with SF-539, 7.94 µM (inactive); in the experiment on UO-31 it was 24.8 µM (inactive); in the experiment on NCI-H522, 11.5 µM (inactive). Further, the GI50 with LOX IMVI was 7.66 µM (inactive); in the experiment on DU-145 it was 25.9 µM (inactive); in the experiment on MDA-MB-435, 9.1 µM (inactive); with HL-60, 8 µM (inactive); in the experiment with OVCAR-4, 17.5 µM (inactive); in the experiment with OVCAR-3 it was 13.3 µM (inactive). Moreover, the GI50 is 11 µM (inactive) with K562 and 9.75 µM (inactive) in the experiment on U-251.

As to `Cc1cc(C)c2c(=O)n(CN3CC4Nc5ccccc5C4C3)sc2n1` (stereo not given), the GI50 is 18.7 µM (inactive) with MDA-MB-231; 22 µM (inactive) in the experiment on CCRF-CEM; 21 µM with HCT-15; 17.9 µM (inactive) in the experiment with ACHN; 21.3 µM (inactive) with HT-29; 81.8 µM (inactive) in the experiment on T47D. The GI50 was 15.5 µM (inactive) in the experiment with UACC-257; 21.3 µM (inactive) with PC-3; 21 µM (inactive) with OVCAR-5; 19.9 µM (inactive) with SF-539; 16.3 µM (inactive) with UO-31; 4.19 µM (inactive) with NCI-H522. Further, the GI50 is 21.8 µM (inactive) in the experiment with LOX IMVI; 21.1 µM (inactive) in the experiment with DU-145; 19.5 µM (inactive) in the experiment on MDA-MB-435; 25.6 µM (inactive) in the experiment with HL-60; 21 µM (inactive) in the experiment on OVCAR-4; 33.5 µM (inactive) in the experiment on OVCAR-3. The values for the GI50 in the experiment with K562 and in the experiment with U-251 were 27.9 µM (inactive) and 31.3 µM (inactive), respectively.

As to `CC1=NN(C(=O)c2ccccc2O)C(=O)/C1=C/c1ccc([N+](=O)[O-])cc1`, the GI50 is 26.9 µM (inactive) in the experiment on MDA-MB-231; 0.407 µM (active) with CCRF-CEM; 0.361 µM in the experiment with HCT-15; 0.106 µM (active) in the experiment on ACHN; 5.97 µM (inactive) in the experiment on HT-29; 1.89 µM (inactive) in the experiment on T47D. The GI50 in the experiment with UACC-257 is 1.91 µM (inactive); in the experiment with PC-3, 1.36 µM (inactive); in the experiment with OVCAR-5, 3.12 µM (inactive); in the experiment with SF-539 it was 0.0951 µM (active); in the experiment on UO-31, 0.103 µM (active); with NCI-H522 it was 0.615 µM (active). Besides, the GI50 was 0.267 µM (active) in the experiment on LOX IMVI; 0.481 µM (active) in the experiment on DU-145; 0.106 µM (active) with MDA-MB-435; 0.508 µM (active) in the experiment on HL-60; 0.482 µM (active) in the experiment on OVCAR-4; 0.172 µM (active) in the experiment with OVCAR-3. The GI50 is 0.0434 µM (active) in the experiment with K562 and 0.0991 µM (active) in the experiment with U-251.

Regarding `CCOC(=O)n1ccc2c(C(=O)OC)c(C(=O)OC)cc(/C(=C/C(=O)OC)C(=O)OC)c21`, the GI50 is > 100 µM (inactive) with MDA-MB-231; 10.4 µM (inactive) with CCRF-CEM; over 10 µM in the experiment on HCT-15; > 100 µM (inactive) with ACHN; > 100 µM (inactive) with HT-29; 74.5 µM (inactive) with T47D. Also, the GI50 in the experiment with UACC-257 was > 100 µM (inactive); in the experiment on PC-3, > 100 µM (inactive); in the experiment with OVCAR-5 it was > 100 µM (inactive); in the experiment with SF-539, > 100 µM (inactive); with UO-31, 92.5 µM (inactive); in the experiment with NCI-H522 it was 57.1 µM (inactive). Also, the GI50 in the experiment on LOX IMVI, with DU-145, in the experiment on MDA-MB-435, in the experiment with HL-60, in the experiment on OVCAR-4 and in the experiment with OVCAR-3 was > 100 µM (inactive) throughout. Also, the GI50 with K562 is 26.5 µM (inactive); with U-251, > 100 µM (inactive).
